Where two headings read alike, the source gives them in different places.
How the values were obtained:
Zymoseptoria tritici = test: Leaf Blotch of Wheat fungicidal activity (SEPTTR); assay type: in vivo; details: Low Volume Cereal Activity at 121.5 g/Ha
Puccinia triticina = test: Wheat Brown Rust fungicidal activity (PUCCRT); assay type: in vivo; details: Low Volume Cereal Activity at 121.5 g/Ha
Venturia inaequalis = test: Apple Scab fungicidal activity (VENTIN); assay type: in vivo; details: 24 h, high volume, 1 Day Protectant, read-out: VENTIN % Control rating
Description: All fungicides were evaluated using the aforementioned method for their activity vs. all target diseases, unless stated otherwise. Wheat leaf blotch and brown rust activity were also evaluated using track spray applications, in which case the fungicides were formulated as EC formulations, containing 0.1% Trycol 5941 in the spray solutions. Wheat plants (variety Yuma) were grown from seed in a greenhouse in 50% mineral soil/50% soil-less Metro mix until the first leaf was fully emerged, with 7-10 seedlings per pot. These plants were inoculated with an aqueous spore suspension of Zymoseptoria tritici either prior to or after fungicide treatments. After inoculation the plants were kept in 100% relative humidity (one day in a dark dew chamber followed by two to three days in a lighted dew chamber at 20° C.) to permit spores to germinate and infect the leaf. The plants were then transferred to a greenhouse set at 20° C. for disease to develop. When disease symptoms were fully expressed on the 1st leaves of untreated plants, infection levels were assessed on a scale of 0 to 100 percent disease severity. Percent disease control was calculated using the ratio of disease severity on treated plants relative to untreated plants. […] Seedlings with two expanding young leaves at the top (older leaves at bottom of the plants were trimmed) were used in the test. Plants were inoculated with a spore suspension of Venturia inaequalis 24 hr after fungicide treatment and kept in a 22° C. dew chamber with 100% relative humidity for 48 hr, and then moved to a greenhouse set at 20° C. for disease to develop. Fungicide formulation, application and disease assessment on the sprayed leaves followed the procedures as described in the Example A.

Cercospora beticola = test: Leaf Spot of Sugar Beets fungicidal activity (CERCBE); assay type: in vivo; details: 24 h, sugar beet, high volume, 1 Day Protectant, read-out: CERCBE % Control rating
Description: All fungicides were evaluated using the aforementioned method for their activity vs. all target diseases, unless stated otherwise. Wheat leaf blotch and brown rust activity were also evaluated using track spray applications, in which case the fungicides were formulated as EC formulations, containing 0.1% Trycol 5941 in the spray solutions. Wheat plants (variety Yuma) were grown from seed in a greenhouse in 50% mineral soil/50% soil-less Metro mix until the first leaf was fully emerged, with 7-10 seedlings per pot. These plants were inoculated with an aqueous spore suspension of Zymoseptoria tritici either prior to or after fungicide treatments. After inoculation the plants were kept in 100% relative humidity (one day in a dark dew chamber followed by two to three days in a lighted dew chamber at 20° C.) to permit spores to germinate and infect the leaf. The plants were then transferred to a greenhouse set at 20° C. for disease to develop. When disease symptoms were fully expressed on the 1st leaves of untreated plants, infection levels were assessed on a scale of 0 to 100 percent disease severity. Percent disease control was calculated using the ratio of disease severity on treated plants relative to untreated plants. Sugar beet plants (variety HH88) were grown in soil-less Metro mix and trimmed regularly to maintain a uniform plant size prior to test. Plants were inoculated with a spore suspension 24 hr after fungicide treatments. Inoculated plants were kept in a dew chamber at 22° C. for 48 hr then incubated in a greenhouse set at 24° C. under a clear plastic hood with bottom ventilation until disease symptoms were fully expressed. Fungicide formulation, application and disease assessment on the sprayed leaves followed the procedures as described in the Example A.

Alternaria solani = test: Tomato Early Blight fungicidal activity (ALTESO); assay type: in vivo; details: 24 h, high volume, 1 Day Protectant, read-out: ALTESO % Control rating
Description: All fungicides were evaluated using the aforementioned method for their activity vs. all target diseases, unless stated otherwise. Wheat leaf blotch and brown rust activity were also evaluated using track spray applications, in which case the fungicides were formulated as EC formulations, containing 0.1% Trycol 5941 in the spray solutions. Wheat plants (variety Yuma) were grown from seed in a greenhouse in 50% mineral soil/50% soil-less Metro mix until the first leaf was fully emerged, with 7-10 seedlings per pot. These plants were inoculated with an aqueous spore suspension of Zymoseptoria tritici either prior to or after fungicide treatments. After inoculation the plants were kept in 100% relative humidity (one day in a dark dew chamber followed by two to three days in a lighted dew chamber at 20° C.) to permit spores to germinate and infect the leaf. The plants were then transferred to a greenhouse set at 20° C. for disease to develop. When disease symptoms were fully expressed on the 1st leaves of untreated plants, infection levels were assessed on a scale of 0 to 100 percent disease severity. Percent disease control was calculated using the ratio of disease severity on treated plants relative to untreated plants. Tomato plants (variety Outdoor Girl) were propagated in soil-less Metro mix, with each pot having one plant, and used when 12 to 14 days old. Test plants were inoculated with an aqueous spore suspension of Alternaria solani 24 hr after fungicide treatments. After inoculation the plants were kept in a dew room at 22° C. with 100% relative humidity for 48 hr to permit spores to germinate and infect the leaf. The plants were then transferred to a growth room at 22° C. for disease to develop. Fungicide formulation, application and disease assessment on the sprayed leaves followed the procedures as described in the Example A.

Phakopsora pachyrhizi = test: Asian Soybean Rust fungicidal activity (PHAKPA); details: Phakopsora pachyrhizi, in Glycine max
[1] = 24 h, 1 Day Protectant, read-out: SEPTTR 1DP (Wheat Leaf Blotch, 1 Day Protectant)
[2] = 72 h, 3 Day Curative, read-out: SEPTTR 3DC (Wheat Leaf Blotch, 3 Day Curative)
[3] = 24 h, 1 Day Protectant, read-out: PUCCRT 1DP (Wheat Brown Rust, 1 Day Protectant)
[4] = 72 h, 3 Day Curative, read-out: PUCCRT 3DC (Wheat Brown Rust, 3 Day Curative)
[5] = 24 h, read-out: PHAKPA 1DP % Control rating, soybean, high volume, 25 ppm, 1 Day Protectant
[6] = 72 h, read-out: PHAKPA 3DC % Control rating, soybean, high volume, 25 ppm, 3 Day Curative

Row | SMILES | pest or weed control at 121.5 g/ha (Zymoseptoria tritici; [1]) [%] | pest or weed control at 121.5 g/ha (Zymoseptoria tritici; [2]) [%] | pest or weed control at 121.5 g/ha (Puccinia triticina; [3]) [%] | pest or weed control at 121.5 g/ha (Puccinia triticina; [4]) [%] | pest or weed control at 100 ppm (Venturia inaequalis) [%] | pest or weed control at 100 ppm (Cercospora beticola) [%] | pest or weed control at 100 ppm (Alternaria solani) [%] | pest or weed control at 25 ppm (Phakopsora pachyrhizi; [5]) [%] | pest or weed control at 25 ppm (Phakopsora pachyrhizi; [6]) [%]
1 | COc1ccnc(C(=O)N[C@@H](C)C(=O)O[C@H](C)[C@@H](Oc2ccccc2)c2ccccc2)c1OCOC(C)=O [Example 185] | > 80 | > 80 | > 80 | > 80 | < 80 | < 80 | < 80 | < 80 | < 0
2 | COc1ccnc(C(=O)N[C@H](C)C(=O)O[C@H](C)[C@@H](Oc2ccccc2)c2ccccc2)c1OCOC(C)=O [Example 186] | < 80 | < 80 | < 0 | < 0 | < 80 | < 80 | < 80 | < 0 | < 0
3 | COc1ccnc(C(=O)N[C@@H](C)C(=O)O[C@@H](C)[C@H](Oc2ccccc2)c2ccc(C)cc2F)c1OCOC(C)=O [Example 261] | > 80 | > 80 | > 80 | > 80 | – | – | – | > 80 | < 0
4 | COc1ccnc(C(=O)N[C@@H](C)C(=O)O[C@@H](C)[C@H](Oc2ccccc2)c2ccc(F)cc2OCC(F)F)c1OC(C)=O [Example 273] | > 80 | > 80 | > 80 | > 80 | – | – | – | < 80 | < 0

Reference: patent publication US20180002288A1, “USE OF PICOLINAMIDES AS FUNGICIDES” (DOW AGROSCIENCES LLC, priority 2014, published 2018)
